In US9512111B2, “N-sulfonylated tetrahydroquinolines and related bicyclic compounds for inhibition of RORγ activity and the treatment of disease” (Lycera Corporation, priority 2010, dated 2016):
Like-named read-outs stand apart in the source and are kept apart here.

Experiments:
RORγt = target: T1, RORγt (Homo sapiens, UniProt P51449); assay: RORγ Reporter Assay (GAL4-UAS luciferase reporter in HEK293 cells); type: cell-based
T1 construct: The resulting GAL4-RORγt-LBD fusion construct was placed under the control of a constitutive cytomegalovirus (CMV) promoter; expressed in transfected cells; host or cells: HEK293
T1 sequence (P51449 269-508 limits assumed): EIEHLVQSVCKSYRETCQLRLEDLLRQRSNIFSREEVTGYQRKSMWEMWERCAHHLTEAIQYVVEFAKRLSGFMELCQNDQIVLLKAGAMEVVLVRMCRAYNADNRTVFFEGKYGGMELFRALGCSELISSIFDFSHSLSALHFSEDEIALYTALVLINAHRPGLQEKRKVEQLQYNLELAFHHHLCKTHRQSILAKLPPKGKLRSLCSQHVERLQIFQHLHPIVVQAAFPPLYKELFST
Description: Inhibition of RORγt in cells was determined using a GAL4-UAS reporter system in HEK293 cells employing a luciferase readout. The RORγt DNA binding domain (DBD) was replaced with the heterologous yeast GAL4 DBD using standard recombinant DNA methods. The resulting GAL4-RORγt-LBD fusion construct was placed under the control of a constitutive cytomegalovirus (CMV) promoter by cloning it into the CMV-driven mammalian expression vector pcDNA3.1+− (Promega Corporation, Madison, Wis.).
A transcriptional reporter expression construct was used to monitor GAL4-RORγ activity, which contained five copies of the GAL4 binding site enhancer (UAS) controlling expression of a firefly luciferase reporter. This construct, pGL4.31, is commercially available from Promega Corporation, Madison Wis. Both expression constructs were transfected in bulk into HEK-293 cells using standard lipid-based transfection techniques, which allowed the GAL4 RORγ-LBD fusion protein to drive expression of the luciferase reporter. Control transfections were performed with an empty pCDN3.1+ vector.
The next day, cells were plated into 384 well plates, test compound was added, and the plates were incubated overnight. […] Promega firefly assays kits were used to stabilize the luciferase signal, and the intensity of the luciferase signal was measured using an EnVision Multilabel Plate Reader (Perkin Elmer, Waltham, Mass.).
HEK 293 cells are transfected with GAL4-NR construct (CMV:NR-LBD in pcDNA3.1neo) and the pGL4.31 GAL4-luciferase reporter construct (Promega). For a background control, use empty pcDNA3.1neo and pGL4.31. Transfection protocol is for a single T75 flask performed with Minis Trans-It 293 reagent. A 60 μL aliquot of Trans-IT reagent at room temperature is added drop wise to 1.5 mL of Optimem (Invitrogen). The resulting solution is mixed by inversion and incubated for 5-20 minutes at room temperature. This reagent mixture is added to 10 μg of DNA (5 μg of each expression vector used at a concentration of 1 mg/mL). The solution is mixed by inversion and incubated at room temperature for 20 minutes.
While the Trans-IT reagent and DNA are incubating, harvest HEK-293 cells. Remove media from flasks via aspiration and add enough TrypLE Express (stable Trypsin-like reagent, Invitrogen) to cover the bottom of the flask. The mixture is incubated at room temperature until the cells are visibly loose in the flask (approximately 2-5 minutes). Add an equal volume of complete growth media, and then pipette to achieve a single cell suspension. Spin down 1×10^7 cells and re-suspend the cells in 10 mL of complete growth media (DMEM high glucose/10% dialyzed FBS/pen/strep; Invitrogen). The cells and transfection mixture are added to one T75 flask. The contents of the T75 flax are mixed and incubated overnight at 37° C. and 5% CO2.
After 16-24 hours, cells are harvested and plated for test compound screening. Cells may be harvested as described above. Next, cells are counted and an appropriate number of cells are spun down. Then, cells are aspirated and re-suspended in complete growth media at a concentration of 0.5×10^6 cells/mL to provide a cell suspension. Plate 20 μL of the cell suspension into a white, tissue-culture treated 384 well plate. (10,000 cells/well).
A 10 mM stock solution of test compound in dimethylsulfoxide (DMSO) was diluted to 500× the final test concentration in DMSO, then diluted to 5× the final test concentration with complete growth medium to provide the Test Compound Solution. The concentration of DMSO in the Test Compound Solution was […]. A 5 μL aliquot of Test Compound Solution was added to each test well in the 384 well plate previously plated with the cell suspension. Next, plates are spun briefly and incubated overnight at 37° C. and 5% CO2.
After 16-24 hours, the luciferase assay is performed. Plates and luciferase reagent (e.g. One-Glo® or Dual Glo®; Promega, Madison, Wis.) are brought to room temperature.

RORγ-LBD = target: T2, RORγ-LBD (Homo sapiens, UniProt P51449); assay: RORγ-Ligand Binding Domain TR-FRET Assay; type: biochemical; settings: benzoxazines, Table 9
T2 construct: HIS-tagged RORγ-LBD was recombinantly expressed in SF9 cells; made in house; host or cells: SF9 cells (baculovirus); unpurified lysate
T2 sequence (P51449 269-508 limits assumed): T1 sequence (P51449 269-508 limits assumed)
Outline: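 Unpurified His-tagged LBD in Sf9 lysate (~10 nM final) in 25 mM HEPES pH 7.0, 100 mM NaCl, 0.01% Tween, 0.1% BSA, with biotinylated SRC1-2 LXXLL peptide (450 nM), Eu anti-His (2 nM) and streptavidin-APC (60 nM). Incubated 4 h to overnight; IC50 from 665/615 nm TR-FRET ratio.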

[1] = benzoxazines, Table 9, HEK cells
[2] = Table 7, tetrahydroquinolines, HEK293 cells, read-out: RORγ HEK IC50

Row | Structure (SMILES) | IC50 (RORγt; [1]) [µM] | IC50 (RORγ-LBD) [µM] | IC50 (RORγt; [2]) [µM]
1 | O=C(Nc1ccc2c(c1)N(S(=O)(=O)c1ccc(F)cc1)CCO2)c1c(Cl)cccc1Cl [VI-129] | < 15 | < 15 | 
2 | O=C(Nc1ccc2c(c1)N(S(=O)(=O)c1ccc(F)cc1)C[C@H](CO)O2)c1c(F)cccc1Cl [VI-120] | < 15 | < 15 | 
3 | O=C(Nc1ccc2c(c1)N(S(=O)(=O)c1ccc(F)c(F)c1)C[C@@H](CO)O2)c1c(F)cccc1Cl [VI-75] | < 15 | < 15 | 
4 | COCC1CN(S(=O)(=O)c2ccc(F)cc2)c2cc(NC(=O)c3c(F)cccc3F)ccc2O1 (stereo not shown) [VI-113] | < 15 | < 15 | 
5 | Cc1cc2c(cc1NC(=O)c1c(F)cccc1Cl)N(S(=O)(=O)c1ccc(F)cc1)CCC2 [Compound 6, 2-Chloro-6-fluoro-N-[1-(4-fluorobenzenesulfonyl)-6-methyl-1,2,3,4-tetrahydroquinolin-7-yl]benzamide] |  |  | < 15
6 | CCOCC1CN(S(=O)(=O)c2ccc(F)c(F)c2)c2cc(NC(=O)c3c(Cl)cccc3C(F)(F)F)ccc2O1 (stereo not shown) [VI-88] | < 15 | < 15 | 
7 | CCOCC1CN(S(=O)(=O)c2ccc(Cl)cc2)c2cc(NC(=O)c3c(Cl)cccc3Cl)ccc2O1 (stereo not shown) [VI-92] | < 15 | < 15 | 
8 | O=C(Nc1ccc2c(c1)N(S(=O)(=O)c1ccc(Cl)cc1)C[C@@H](CO)O2)c1c(F)cccc1C(F)(F)F [VI-51] | < 15 | < 15 | 
9 | CCOCC1CN(S(=O)(=O)c2ccc(F)c(F)c2)c2cc(NC(=O)c3c(Cl)cccc3Cl)ccc2O1 (stereo not shown) [VI-98] | < 15 | < 15 | 
10 | O=C(Nc1ccc2c(c1)N(S(=O)(=O)c1ccccc1)C[C@H](CO)O2)c1c(F)cccc1Cl [VI-24] | < 15 | < 15 | 
11 | O=C(Nc1cc2c(cc1F)O[C@@H](CO)CN2S(=O)(=O)c1ccc(F)cc1)c1c(Cl)cccc1C(F)(F)F [VI-41] | < 15 | < 15 | 
12 | CCOCC1CN(S(=O)(=O)c2ccc(F)cc2)c2cc(NC(=O)c3c(F)cccc3F)ccc2O1 (stereo not shown) [VI-112] | < 15 | < 15 | 
13 | CCOCC1CN(S(=O)(=O)c2ccc(F)c(F)c2)c2cc(NC(=O)c3c(F)cccc3F)ccc2O1 (stereo not shown) [VI-99] | < 15 | < 15 | 
14 | O=C(Nc1ccccc1Cl)c1ccc2c(c1)N(S(=O)(=O)c1ccc(F)cc1)CCO2 [VI-128] | < 15 |  | 
15 | O=C(Nc1ccc2c(c1)N(S(=O)(=O)c1ccc(Cl)cc1)CCC2)c1c(F)cccc1Cl [Compound 5, 2-Chloro-N-[1-(4-chlorobenzenesulfonyl)-1,2,3,4-tetrahydroquinolin-7-yl]-6-fluorobenzamide] |  |  | < 15
16 | O=C(Nc1c(Cl)cccc1Cl)c1ccc2c(c1)N(S(=O)(=O)c1ccc(F)cc1)CCO2 [VI-126] | < 15 |  | 

More lines, now with the values ahead:

Row | IC50 (RORγt; [1]) [µM] | IC50 (RORγ-LBD) [µM] | IC50 (RORγt; [2]) [µM] | Structure (SMILES)
17 | < 15 | < 15 |  | N#Cc1cccc(S(=O)(=O)N2C[C@H](CO)Oc3ccc(NC(=O)c4c(F)cccc4Cl)cc32)c1 [Compound 20, (R)-2-Chloro-N-(4-((3-cyanophenyl)sulfonyl)-2-(hydroxymethyl)-3,4-dihydro-2H-benzo[b][1,4]oxazin-6-yl)-6-fluorobenzamide]
18 | < 15 | < 15 |  | CC1(C)CN(S(=O)(=O)c2ccc(F)cc2)c2cc(NC(=O)c3c(Cl)cccc3Cl)ccc2O1 [VI-125]
19 | < 15 | < 15 |  | CC(C)OCC1CN(S(=O)(=O)c2ccc(F)cc2)c2cc(NC(=O)c3c(Cl)cccc3C(F)(F)F)ccc2O1 (stereo not shown) [VI-123]
20 | < 15 | < 15 |  | CC1(C)CN(S(=O)(=O)c2ccc(F)cc2)c2cc(NC(=O)c3c(F)cccc3C(F)(F)F)ccc2O1 [VI-124]
21 | < 15 | < 15 |  | O=C(Nc1ccc2c(c1)N(S(=O)(=O)c1ccc(F)cc1)CC(CN(CC1CC1)CC1CC1)O2)c1c(F)cccc1Cl (stereo not shown) [VI-37]
22 | < 15 | < 15 |  | COCC1CN(S(=O)(=O)c2ccc(F)c(F)c2)c2cc(NC(=O)c3c(F)cccc3Cl)ccc2O1 (stereo not shown) [VI-80]
23 | < 15 | < 15 |  | O=C(Nc1ccc2c(c1)N(S(=O)(=O)c1ccc(Cl)cc1)C[C@H](CO)O2)c1c(Cl)cccc1C(F)(F)F [VI-84]
24 | < 15 | < 15 |  | Cc1nn(C(F)F)cc1S(=O)(=O)N1C[C@H](CO)Oc2ccc(NC(=O)c3c(Cl)cccc3C(F)(F)F)cc21 [VI-29]
25 | < 15 | < 15 |  | O=C(Nc1ccc2c(c1)N(S(=O)(=O)c1ccc(F)cc1)C[C@@H](CO)O2)c1c(F)cccc1F [VI-110]
26 | < 15 | < 15 |  | Cc1nn(C(F)F)cc1S(=O)(=O)N1C[C@H](C)Oc2ccc(NC(=O)c3c(F)cccc3C(F)(F)F)cc21 [VI-10]
27 | < 15 |  |  | O=C(Nc1c(F)cccc1Cl)c1ccc2c(c1)N(S(=O)(=O)c1ccc(F)cc1)CCO2 [VI-127]
28 | < 15 | < 15 |  | Cc1cccc(F)c1C(=O)Nc1ccc2c(c1)N(S(=O)(=O)c1cccc(C#N)c1)C[C@H](CO)O2 [VI-45]
29 | < 15 | < 15 |  | Cc1cccc(F)c1C(=O)Nc1ccc2c(c1)N(S(=O)(=O)c1ccc(F)cc1)C[C@H](CO)O2 [VI-44]
30 | < 15 | < 15 |  | CC(C)OCC1CN(S(=O)(=O)c2ccc(F)cc2)c2cc(NC(=O)c3c(Cl)cccc3Cl)ccc2O1 (stereo not shown) [VI-109]
31 | < 15 | < 15 |  | CC(C)OCC1CN(S(=O)(=O)c2ccc(F)cc2)c2cc(NC(=O)c3c(F)cccc3Cl)ccc2O1 (stereo not shown) [VI-121]
32 | < 15 | < 15 |  | O=C(Nc1ccc2c(c1)N(S(=O)(=O)c1ccc(Cl)cc1)C[C@H](CO)O2)c1c(Cl)cccc1Cl [VI-85]
33 | < 15 | < 15 |  | COCC1CN(S(=O)(=O)c2ccc(F)c(F)c2)c2cc(NC(=O)c3c(F)cccc3F)ccc2O1 (stereo not shown) [VI-81]
34 | < 15 | < 15 |  | O=C(Nc1ccc2c(c1)N(S(=O)(=O)c1ccc(Cl)cc1)C[C@H](CO)O2)c1c(F)cccc1Cl [VI-86]
35 | < 15 | < 15 |  | CCOCC1CN(S(=O)(=O)c2ccc(Cl)cc2)c2cc(NC(=O)c3c(Cl)cccc3C(F)(F)F)ccc2O1 (stereo not shown) [VI-90]
36 | < 15 | < 15 |  | CCOCC1CN(S(=O)(=O)c2ccc(F)cc2)c2cc(NC(=O)c3c(Cl)cccc3Cl)ccc2O1 (stereo not shown) [VI-108]
37 | < 15 | < 15 |  | O=C(Nc1ccc2c(c1)N(S(=O)(=O)c1ccc(F)cc1)CC(CNCC1CC1)O2)c1c(F)cccc1Cl (stereo not shown) [VI-32]
38 | < 15 | < 15 |  | COCC1CN(S(=O)(=O)c2ccc(Cl)cc2)c2cc(NC(=O)c3c(F)cccc3Cl)ccc2O1 (stereo not shown) [VI-96]
39 | < 15 | < 15 |  | O=C(Nc1ccc2c(c1)N(S(=O)(=O)c1ccc(Cl)cc1)C[C@@H](CO)O2)c1c(Cl)cccc1Cl [VI-52]
